The values below come from US7217730B2, “Method for the use of pyranoindole derivatives to treat infection with Hepatitis C virus” (Wyeth, priority 2002, dated 2007).

This test has as its target T1, NS5B from the BK strain (genotype 1b) (Hepatitis C virus genotype 1b, UniProt P26663).
T1 construct: NS5B from the BK strain (genotype 1b) is expressed in E. coli as a protein in which the 21 C-terminal amino acids are replaced; made in house; host or cells: E. coli
The experiment in a line: Hepatitis C polymerase inhibition, NS5B BK strain, 33P-GTP filter assay. Conditions: Table 1A; for IC50: NS5B BK strain, read-out: HCV pol BK IC50; for inhibition at 20 µM: 20 μM compound, read-out: HCV pol % inh at 20 μM. Format: biochemical. The text has this:
The ability of the compounds of the present invention to inhibit Hepatitis C Polymerase was established by the following experimental procedure: • NS5B from the BK strain (genotype 1b) is expressed in E. coli as a protein in which the 21 C-terminal amino acids are replaced with a short linker and a hexahistidine tag ([…]). The purified protein is mixed with radioactive nucleotides and allowed to replicate a heteropolymeric RNA substrate, primed by an endogenous short hairpin, resulting in an approximately 760 nt product. The radioactive product is captured on a filter and quantitated after removal of the unincorporated nucleotides.
Reagents: • 10 mM uridine 5′-triphosphate (UTP) (Promega # p116B) • 10 mM adenine 5′-triphosphate (ATP) (Promega # p113B) • 10 mM cytidine 5′-triphosphate (CTP) (Promega # p114B) • 10 mM guanine 5′-triphosphate (GTP) (Promega # p115B) • Bovine Serum Albumin (BSA) 10 mg/ml NEB (100× at 10 mg/ml) #007-BSA • RNasein (Promega #N251X) 40 U/μl • A-[33P]-GTP (NEN-easytides NEG/606H 3000 Ci/mmol, 370 MBq/ml, 10 mCi/ml) • Falcon polypropylene 96 well plates (Becton Dickinson # 351190) • Millipore Multiscreen assasy system-96 well-filtration plate #MADE NOB 50 • Optiphase Supermix (Wallac) formulated by Fisher • Millipore Multiscreen liner for use in microbeta 1450-106 casette [(Wallac) Perkin Elmer #1450-433] • 1 M(N-[2-hydroxyethyl]piperazine-N′-[2-ethanesulfonic acid]) (HEPES), pH 7.3 • Amersham Pharmacia Biotec (US16924-500 ml) • 1 M MgCl2 (SIGMA #M1028) • Dithiothreitol (DTT) (solid) (SIGMA #D9779) • RNase free water (GIBCO-BRL #10977-023) • Dimethyl sulfoxide (Aldrich #27685-5) • Basilen Blue (Sigma, B5520) • 0.5M ethylenediaminetetraacetic acid (EDTA), pH 8 (GIBCO-BRL #15575-020) • Dibasic sodium phosphate (7-hydrate) (Na2HPO4.7H2O; Baker#3824-07) • Phosphoric acid (Baker, #0262.02)
Further reagent preparation: • 0.5 M Na Phosphate buffer. Per liter, weigh 134 gr Na2HPO4.7H2O, add water to 900 ml. Adjust pH to 7.0 with phosphoric acid. Top off with water to 1 L. • Dilute nucleotides 1:1000 to 10 μM (GTP and CTP) or 1:100 to 100 μM (ATP and UTP) into RNase free water.
Procedure: • (1) Compounds 10 μl at 10 μg/ml in 15% dimethylsulfoxide (DMSO)
When starting from 100 μg/ml compound stock in […]: • Dispense 5 μl 30% DMSO per well • Dispense 5 μl compound (100 μg/ml) per well.
When starting from 50 μg/ml compound stock in 15% DMSO: • Add 10 μl compound per well. • (2) Enzyme Mix:
Add 20 μl enzyme mix into each well of the assay plate. Incubate compound and enzyme at room temperature for 15 minutes • (3) Template mix—prepare ahead
Spin down a tube of RNA (5 μg/tube stored in 75% ethanol and 0.3 M sodium acetate) in a microcentrifuge for 20 minutes at 4° C. One tube is enough for 1–1.5 plates. Remove as much ethanol from the tube as possible by inverting the tube. Be gentle, pellet RNA may not adhere to the tube. Vacuum dry the RNA. Resuspend the RNA by adding 1 ml of DEPC water, close the cap of the tube tightly. To dissolve RNA, incubate RNA solution on ice for ˜60 minutes and gently vortex. Spin briefly to ensure all RNA solution is down to the bottom of the tube before opening cap. Gently transfer RNA solution into a 5 ml or larger tube. Add another 3 ml of DEPC water (total 4 ml of volume).
Add the following volumes of reagents
Add 20 μl template mix per reaction (i.e. 20 ng of pOF per reaction or ˜3 nM) • (4) Incubate reaction at room temperature (22–25° C.) for 2 hours. • (5) Stop reaction by adding 50 μl of 170 mM EDTA. • Final concentration of EDTA is 85 mM. • (6) Prewet filters of Millipore multiscreen assay plate by adding 200 μl of 0.5 M sodium phosphate buffer, pH 7.0 into each well. Let stand at room temperature for 2–3 minutes. • (7) Place the multiscreen filter plate onto a Millipore Manifold and turn on vacuum to allow buffer to flow through. Turn off vacuum. Transfer 80 μl of the reaction product into each well of the filter plate. Let stand for 2–3 minutes. […]

T1 sequence (P26663 2420-2989): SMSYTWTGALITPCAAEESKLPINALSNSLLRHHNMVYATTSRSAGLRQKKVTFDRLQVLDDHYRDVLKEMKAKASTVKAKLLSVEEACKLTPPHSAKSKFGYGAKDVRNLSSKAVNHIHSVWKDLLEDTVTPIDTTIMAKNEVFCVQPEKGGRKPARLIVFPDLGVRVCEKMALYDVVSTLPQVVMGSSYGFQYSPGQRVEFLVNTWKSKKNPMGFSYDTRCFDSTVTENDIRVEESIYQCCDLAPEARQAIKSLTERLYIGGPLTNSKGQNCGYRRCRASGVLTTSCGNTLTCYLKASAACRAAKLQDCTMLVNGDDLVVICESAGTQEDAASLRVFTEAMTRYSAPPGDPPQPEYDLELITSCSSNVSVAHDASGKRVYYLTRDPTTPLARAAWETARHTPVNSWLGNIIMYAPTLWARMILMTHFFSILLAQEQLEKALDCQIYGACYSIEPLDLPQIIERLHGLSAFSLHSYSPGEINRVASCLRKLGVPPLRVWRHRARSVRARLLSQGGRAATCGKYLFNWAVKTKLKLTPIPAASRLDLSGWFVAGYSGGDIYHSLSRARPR

A word on the IC50: it is the point on the concentration scale where inhibition reaches its midpoint. In the case of `CCCC1(CC(=O)O)OCCc2c1[nH]c1c(C)ccc(C(=O)N(C)C)c21` (stereo not drawn) [Example 227, (5-dimethylcarbamoyl-8-Methyl-1-propyl-1,3,4,9-tetrahydropyrano[3,4-b]indol-1-yl)acetic acid], the IC50 was over 20 µM.
With `C/C=C/CCC1(CC(=O)O)OCCc2c1[nH]c1c(Cl)cc(C)c(C#N)c21` (stereo not drawn) [Example 186, {8-chloro-5-cyano-6-methyl-1-[(3E)-pent-3-enyl]-1,3,4,9-tetrahydropyrano[3,4-b]indol-1-yl}acetic acid], the inhibition at 20 µM is 2% and the IC50 was over 5 µM.
For `Cc1cc(F)c2[nH]c3c(c2c1Br)CCOC3(CC(=O)O)c1ccccc1` (stereo not drawn) [Example 168, (5-bromo-8-fluoro-6-methyl-1-phenyl-1,3,4,9-tetrahydropyrano[3,4-b]indol-1-yl)acetic acid], the inhibition at 20 µM came to 4% and the IC50 was over 10 µM.
The corresponding values for `CCCC1(CC(=O)O)OCCc2c1[nH]c1c(F)cc(C)c(Br)c21` (stereo not drawn) [Example 165, (5-bromo-8-fluoro-6-methyl-1-propyl-1,3,4,9-tetrahydropyrano[3,4-b]indol-1-yl)acetic acid] are 89% and 0.6 µM.
Take `CCCCC1(CC(=O)O)OCCc2c1[nH]c1cccc(Cl)c21` (stereo not drawn) [Example 69, (1-butyl-5-chloro-1,3,4,9-tetrahydropyrano[3,4-b]indol-1-yl)acetic acid]: the IC50 came to 5.5 µM.
Regarding `C/C=C/CCC1(CC(=O)O)OCCc2c1[nH]c1c(Cl)cc(Cl)c(Cl)c21` (stereo not drawn) [Example 159, {5,6,8-trichloro-1-[(3E)-pent-3-enyl]-1,3,4,9-tetrahydropyrano[3,4-b]indol-1-yl}acetic acid], the inhibition at 20 µM was 36% and the IC50 is over 20 µM.
The corresponding values for `CCCC1(CC(=O)O)OCCc2c1[nH]c1cccc(-c3ccccc3C)c21` (stereo not drawn) [Example 42, [5-(2-methylphenyl)-1-propyl-1,3,4,9-tetrahydropyrano[3,4-b]indol-1-yl]acetic acid] are 31% and over 20 µM.
The corresponding values for `CCC1(CC(=O)O)OCCc2c1[nH]c1c(F)cc(C)c(Br)c21` (stereo not drawn) [Example 164, (5-bromo-1-ethyl-8-fluoro-6-methyl-1,3,4,9-tetrahydropyrano[3,4-b]indol-1-yl)acetic acid] are 77% and 2 µM.
Consider `CCCC1(CC(=O)O)OCCc2c1[nH]c1cccc(-c3ccc(C)cc3)c21` (stereo not drawn) [Example 32, [5-(4-methylphenyl)-1-propyl-1,3,4,9-tetrahydropyrano[3,4-b]indol-1-yl]acetic acid], for which the inhibition at 20 µM is under 5% and the half-inhibitory concentration (IC50) is over 20 µM.
In the same order, the values of `N#Cc1cccc2[nH]c3c(c12)CCOC3(CC(=O)O)c1ccccc1F` (stereo not drawn) [Example 66, [5-cyano-1-(2-fluorophenyl)-1,3,4,9-tetrahydropyrano[3,4-b]indol-1-yl]acetic acid] are 28% and over 20 µM.
The corresponding values for `Cc1cc(Cl)c2[nH]c3c(c2c1Br)CCOC3(CC(=O)O)c1ccccc1` (stereo not drawn) [Example 179, (5-bromo-8-chloro-6-methyl-1-phenyl-1,3,4,9-tetrahydropyrano[3,4-b]indol-1-yl)acetic acid] are 15% and over 5 µM.
In the same order, the values of `O=C(O)CC1(c2ccccc2F)OCCc2c1[nH]c1cccc(Br)c21` (stereo not drawn) [Example 30, [5-bromo-1-(2-fluorophenyl)-1,3,4,9-tetrahydropyrano[3,4-b]indol-1-yl]acetic acid] are under 5% and over 20 µM.
As for `CCCC1(CC(=O)O)OCCc2c1[nH]c1c(Br)cccc21` (stereo not drawn) [Example 82, (8-bromo-1-propyl-1,3,4,9-tetrahydropyrano[3,4-b]indol-1-yl)acetic acid], the inhibition at 20 µM was 73% and the IC50 is 9.2 µM.
